From publication PMC6297231 (Nature Communications, 2018)
Read-outs that look alike come from different tables or passages of the source.

Assays:
A101D = test: Cell viability assay; format: cell-based; details: Homo sapiens, 24 h; A101D (Skin); read-out: AZD5991 24h GI50
Procedure: (§1) Cells were plated at 3000 cells/well in 384-well white plates in corresponding cell growth media. […] Caspase-3/7 activation was subsequently determined using a Caspase-Glo 3/7 Reagent (Promega) and viability was assayed using the CellTiter-Glo Reagent (Promega) as described in manufacturer’s instructions. Dose–response curves for caspase-3/7 activation and viability were plotted and analyzed (including EC50 and GI50 determination) using GraphPad Prism.

OCILY19 = test: Cell viability assay; format: cell-based; details: Homo sapiens, OCI-LY19, 24 h; OCILY19 (NHL); read-out: AZD5991 24h GI50
Procedure: as §1

Sudhl5 = test: Cell viability assay; format: cell-based; details: Homo sapiens, SU-DHL-5, 24 h; Sudhl5 (NHL); read-out: AZD5991 24h GI50
Procedure: as §1

[1] = system: Eμ-Myc lymphoma cells stably expressing human Bfl-1/A1; test: Apoptosis induction in Eμ-Myc lymphoma cells; details: overexpression of Bfl-1/A1, 24 h
Source text: The retroviral plasmids to express human Bcl-2 family members in murine Eμ-Myc lymphoma cells are MSCV-hMCL-1-GFP, MSCV-hBCL-2-GFP, MSCV-hBCL-XL-GFP, MSCV-hBFL-1/A1-GFP, and MSCV-hBCL-w-GFP. To produce viruses, constructs of interest were co-transfected into HEK293T cells with the plasmid encoding the packaging viruses (p-CL-AMPHO provided by Phillip Darcy from Peter MacCallum Cancer Center, Melbourne, Australia) using standard calcium phosphate transient transfection technique. The retroviruses were harvested, filtered and used to infect target cells following standard procedures.
Samples were then centrifuged, washed twice with PBS and analyzed by flow cytometry in a BD LSRFortessa. FACSDiva software was used for data collection and FlowJo software for data analysis.

SBC5 = test: Cell viability assay; format: cell-based; details: Homo sapiens, SBC-5, 24 h; SBC5 (Lung); read-out: AZD5991 24h GI50
Procedure: as §1

FaDu = test: Cell viability assay; format: cell-based; details: Homo sapiens, 24 h; FaDu (Others); read-out: AZD5991 24h GI50
Procedure: as §1

H322 = test: Cell viability assay; format: cell-based; details: NCI-H322, 24 h; H322 (Lung); read-out: AZD5991 24h GI50
Procedure: as §1

WSUDLCL2 = test: Cell viability assay; format: cell-based; details: Homo sapiens, 24 h; WSUDLCL2 (NHL); read-out: AZD5991 24h GI50
Procedure: as §1

SKOV3 = test: Cell viability assay; format: cell-based; details: Homo sapiens, SK-OV-3, 24 h; SKOV3 (Others); read-out: AZD5991 24h GI50
Procedure: as §1

H23 = test: Cell viability assay; format: cell-based; details: Homo sapiens, NCI-H23, 24 h; H23 (Lung); read-out: AZD5991 24h GI50
Procedure: as §1

OPM2 = test: Cell viability assay; format: cell-based; details: Homo sapiens, OPM-2, 24 h; OPM2 (MM); read-out: AZD5991 24h GI50
Procedure: as §1

Sudhl8 = test: Cell viability assay; format: cell-based; details: Homo sapiens, SU-DHL-8, 24 h; Sudhl8 (NHL); read-out: AZD5991 24h GI50
Procedure: as §1

GIST 430/654 = test: Cell viability assay; format: cell-based; details: 24 h; GIST 430/654 (GI); read-out: AZD5991 24h GI50
Procedure: as §1

H196 = test: Cell viability assay; format: cell-based; details: NCI-H196, 24 h; H196 (Lung); read-out: AZD5991 24h GI50
Procedure: as §1

H358 = test: Cell viability assay; format: cell-based; details: Homo sapiens, NCI-H358, 24 h; H358 (Lung); read-out: AZD5991 24h GI50
Procedure: as §1

SNU1197 = test: Cell viability assay; format: cell-based; details: 24 h; SNU1197 (GI); read-out: AZD5991 24h GI50
Procedure: as §1

ML2 = test: Cell viability assay; format: cell-based; details: Homo sapiens, ML-2, 24 h; ML2 (AML); read-out: AZD5991 24h GI50
Procedure: as §1

OCIAML2 = test: Cell viability assay; format: cell-based; details: Homo sapiens, OCI-AML2, 24 h; OCIAML2 (AML); read-out: AZD5991 24h GI50
Procedure: as §1

OCILY7 = test: Cell viability assay; format: cell-based; details: Homo sapiens, OCI-Ly7, 24 h; OCILY7 (NHL); read-out: AZD5991 24h GI50
Procedure: as §1

647V = test: Cell viability assay; format: cell-based; details: Homo sapiens, 24 h; 647V (Urology); read-out: AZD5991 24h GI50
Procedure: as §1

VAL = test: Cell viability assay; format: cell-based; details: 24 h; VAL (NHL); read-out: AZD5991 24h GI50
Procedure: as §1

HL60 = test: Cell viability assay; format: cell-based; details: Homo sapiens, HL-60, 24 h; HL60 (AML); read-out: AZD5991 24h GI50
Procedure: as §1

ARH77 = test: Cell viability assay; format: cell-based; details: Homo sapiens, ARH-77, 24 h; ARH77 (MM); read-out: AZD5991 24h GI50
Procedure: as §1

Daudi = test: Cell viability assay; format: cell-based; details: Homo sapiens, 24 h; Daudi (NHL); read-out: AZD5991 24h GI50
Procedure: as §1

OCIAML3 = test: Caspase-3/7 activation assay; format: cell-based; details: Homo sapiens, OCI-AML-3, 6 h
Procedure: as §1

OCILY10 = test: Cell viability assay; format: cell-based; details: Homo sapiens, OCI-Ly10, 24 h; OCILY10 (NHL); read-out: AZD5991 24h GI50
Procedure: as §1

MDAMB468 = test: Cell viability assay; format: cell-based; details: Homo sapiens, MDA-MB-468, 24 h; MDAMB468 (Breast); read-out: AZD5991 24h GI50
Procedure: as §1

HEL92.1.7 = test: Caspase-3/7 activation assay; format: cell-based; details: Homo sapiens, HEL 92.1.7, 6 h
Procedure: as §1

A2058 = test: Cell viability assay; format: cell-based; details: Homo sapiens, 24 h; A2058 (Skin); read-out: AZD5991 24h GI50
Procedure: as §1

Sudhl10 = test: Cell viability assay; format: cell-based; details: Homo sapiens, SU-DHL10, 24 h; Sudhl10 (NHL); read-out: AZD5991 24h GI50
Procedure: as §1

H1568 = test: Cell viability assay; format: cell-based; details: NCI-H1568, 24 h; H1568 (Lung); read-out: AZD5991 24h GI50
Procedure: as §1

**Q.** Which GI50 (A101D) does the source give for `Cc1c2c(nn1C)CSCc1cc(n(C)n1)CSc1cc(c3ccccc3c1)OCCCc1c(C(=O)O)n(C)c3c-2c(Cl)ccc13` (atropisomer, axis not shown; (Ra)) [(Ra)-7] here?
**A.** 175 nM

**Q.** And the GI50 (OCILY19)?
**A.** 140 nM

**Q.** What about the GI50 (Sudhl5) of the same compound?
**A.** 18 nM

**Q.** What about the apoptosis-inducing activity [1] of the same compound?
**A.** blocked

**Q.** What about the GI50 (SBC5) of the same compound?
**A.** 541 nM

**Q.** What about the GI50 (FaDu) of the same compound?
**A.** 8870 nM

**Q.** What about the GI50 (H322) of the same compound?
**A.** 17400 nM

**Q.** What about the GI50 (WSUDLCL2) of the same compound?
**A.** 109 nM

**Q.** And the GI50 (SKOV3)?
**A.** 144 nM

**Q.** What about the GI50 (H23) of the same compound?
**A.** 122 nM

**Q.** And the GI50 (OPM2)?
**A.** 57 nM

**Q.** And the GI50 (Sudhl8)?
**A.** 198 nM

**Q.** What about the GI50 (GIST 430/654) of the same compound?
**A.** 1620 nM

**Q.** What about the GI50 (H196) of the same compound?
**A.** > 30000 nM

**Q.** And the GI50 (H358)?
**A.** 4240 nM

**Q.** What about the GI50 (SNU1197) of the same compound?
**A.** 27300 nM

**Q.** What about the GI50 (ML2) of the same compound?
**A.** 69 nM

**Q.** And the GI50 (OCIAML2)?
**A.** 295 nM

**Q.** What about the GI50 (OCILY7) of the same compound?
**A.** 24 nM

**Q.** And the GI50 (647V)?
**A.** 22300 nM

**Q.** What about the GI50 (VAL) of the same compound?
**A.** 102 nM

**Q.** What about the GI50 (HL60) of the same compound?
**A.** 543 nM

**Q.** What about the GI50 (ARH77) of the same compound?
**A.** 18200 nM

**Q.** What about the GI50 (Daudi) of the same compound?
**A.** 133 nM

**Q.** What about the EC50 (OCIAML3; read-out: 6h caspase EC50, OCIAML3, single agent) of the same compound?
**A.** > 333 nM

**Q.** What about the EC50 (OCIAML3; read-out: AZD5991 6h EC50, OCIAML3 (AML), caspase 3/7 activation) of the same compound?
**A.** 782 nM

**Q.** And the GI50 (OCILY10)?
**A.** 119 nM

**Q.** What about the GI50 (MDAMB468) of the same compound?
**A.** 540 nM

**Q.** What about the EC50 (HEL92.1.7; read-out: 6h caspase EC50, HEL9217, single agent) of the same compound?
**A.** > 333 nM

**Q.** What about the EC50 (HEL92.1.7; read-out: AZD5991 6h EC50, HEL92.1.7 (AML), caspase 3/7 activation) of the same compound?
**A.** 564 nM

**Q.** And the GI50 (A2058)?
**A.** 765 nM

**Q.** And the GI50 (Sudhl10)?
**A.** 10 nM

**Q.** What about the GI50 (H1568) of the same compound?
**A.** 272 nM
